This is an account of results in patent publication US8835472B2, “Compounds, pharmaceutical compositions and uses thereof” (Boehringer Ingelheim International GmbH, priority 2010, dated 2014).

Sequence of human ACC2 (O00763 129-2458): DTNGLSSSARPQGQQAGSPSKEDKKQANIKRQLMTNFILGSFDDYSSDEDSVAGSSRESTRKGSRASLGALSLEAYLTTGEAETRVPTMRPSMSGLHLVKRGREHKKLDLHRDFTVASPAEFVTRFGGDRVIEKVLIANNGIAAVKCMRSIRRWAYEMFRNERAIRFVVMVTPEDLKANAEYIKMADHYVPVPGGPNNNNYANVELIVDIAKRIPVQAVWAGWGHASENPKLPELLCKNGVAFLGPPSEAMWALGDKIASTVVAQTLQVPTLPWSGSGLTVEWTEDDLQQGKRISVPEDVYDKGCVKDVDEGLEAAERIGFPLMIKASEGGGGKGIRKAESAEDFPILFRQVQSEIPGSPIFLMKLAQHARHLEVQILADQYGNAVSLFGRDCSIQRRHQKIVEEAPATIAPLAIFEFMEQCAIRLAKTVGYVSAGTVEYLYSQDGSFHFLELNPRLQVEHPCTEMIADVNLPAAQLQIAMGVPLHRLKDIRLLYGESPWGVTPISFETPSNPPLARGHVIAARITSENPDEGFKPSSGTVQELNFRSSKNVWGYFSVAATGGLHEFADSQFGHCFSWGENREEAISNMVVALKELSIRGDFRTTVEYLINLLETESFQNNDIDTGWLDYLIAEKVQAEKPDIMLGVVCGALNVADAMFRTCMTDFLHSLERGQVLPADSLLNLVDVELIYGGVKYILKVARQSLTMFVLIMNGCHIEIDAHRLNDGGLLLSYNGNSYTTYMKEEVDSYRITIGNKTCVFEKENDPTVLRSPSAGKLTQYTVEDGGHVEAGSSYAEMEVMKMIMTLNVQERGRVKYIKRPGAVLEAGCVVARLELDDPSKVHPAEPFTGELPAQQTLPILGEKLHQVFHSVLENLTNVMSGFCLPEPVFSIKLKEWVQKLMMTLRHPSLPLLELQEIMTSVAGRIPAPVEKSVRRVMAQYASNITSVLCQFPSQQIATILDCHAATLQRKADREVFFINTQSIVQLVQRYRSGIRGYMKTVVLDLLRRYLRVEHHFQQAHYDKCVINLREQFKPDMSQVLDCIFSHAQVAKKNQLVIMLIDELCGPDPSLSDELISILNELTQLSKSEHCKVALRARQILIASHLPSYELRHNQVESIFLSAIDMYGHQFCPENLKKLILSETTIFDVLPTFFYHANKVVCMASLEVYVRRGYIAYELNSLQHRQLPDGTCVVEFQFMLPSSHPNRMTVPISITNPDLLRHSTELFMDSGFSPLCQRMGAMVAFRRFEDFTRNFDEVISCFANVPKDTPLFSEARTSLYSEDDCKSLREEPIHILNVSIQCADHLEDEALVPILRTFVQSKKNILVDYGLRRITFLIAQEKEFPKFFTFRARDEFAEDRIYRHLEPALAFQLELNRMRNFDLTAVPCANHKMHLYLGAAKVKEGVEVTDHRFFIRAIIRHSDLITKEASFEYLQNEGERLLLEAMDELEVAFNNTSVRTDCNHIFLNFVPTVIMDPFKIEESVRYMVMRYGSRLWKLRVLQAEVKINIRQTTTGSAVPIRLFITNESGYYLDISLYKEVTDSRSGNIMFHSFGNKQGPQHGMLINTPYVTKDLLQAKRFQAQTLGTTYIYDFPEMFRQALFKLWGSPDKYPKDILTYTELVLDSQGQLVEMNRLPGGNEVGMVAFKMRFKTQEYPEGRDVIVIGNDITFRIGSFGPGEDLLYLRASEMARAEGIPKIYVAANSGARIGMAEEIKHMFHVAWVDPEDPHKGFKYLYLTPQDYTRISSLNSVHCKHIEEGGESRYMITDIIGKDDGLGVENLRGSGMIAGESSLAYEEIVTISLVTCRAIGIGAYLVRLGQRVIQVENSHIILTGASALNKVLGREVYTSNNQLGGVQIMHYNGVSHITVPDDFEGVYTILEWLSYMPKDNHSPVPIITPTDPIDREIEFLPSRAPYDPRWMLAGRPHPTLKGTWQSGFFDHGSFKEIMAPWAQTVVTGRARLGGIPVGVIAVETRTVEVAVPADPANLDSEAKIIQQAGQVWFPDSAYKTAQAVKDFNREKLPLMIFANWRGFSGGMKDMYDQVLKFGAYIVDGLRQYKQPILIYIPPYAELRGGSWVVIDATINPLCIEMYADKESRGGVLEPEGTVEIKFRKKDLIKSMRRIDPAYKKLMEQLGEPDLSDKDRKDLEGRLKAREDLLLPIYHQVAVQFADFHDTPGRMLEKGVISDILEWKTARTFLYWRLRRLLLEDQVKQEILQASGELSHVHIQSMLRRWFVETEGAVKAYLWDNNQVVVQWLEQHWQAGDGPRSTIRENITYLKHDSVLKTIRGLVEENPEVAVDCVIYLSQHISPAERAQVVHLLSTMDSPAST

The target of the assay is human ACC2 (Homo sapiens (Human), UniProt O00763). The assay can be described thus: ACC2 assay, spectrophotometric 384 well assay (NADH-linked, coupled lactate dehydrogenase/pyruvate kinase reaction). Type of assay: biochemical. The conditions noted are these: hACC2 construct lacking the 128 N-terminal amino acids; 25° C., 340 nm over 15 minutes. On the procedure:
Spectrophotometric 384 Well Assay
Malonyl CoA formation by acetyl CoA carboxylases is stoichometrically linked to the consumption of ATP. ACC2 activity is measured in a NADH-linked kinetic method measuring ADP generated during the ACC reaction using a coupled lactate dehydrogenase/pyruvate kinase reaction.
For biological testing, a human ACC2 construct which lacks the 128 amino acids at the N-terminus for increased solubility (nt 385-6966 in Genbank entry AJ575592) is cloned. The protein is then expressed in insect cells using a baculoviral expression system. Protein purification is performed by anion exchange.
All compounds are dissolved in dimethyl sulfoxide (DMSO) to a concentration of 10 mM.
Assay reactions are then carried out in 384-well plates, with hACC2 in an appropriate dilution and at final assay concentrations (f.c.) of 100 mM Tris (pH 7.5), 10 mM trisodium citrate, 25 mM KHCO3, 10 mM MgCl2, 0.5 mg/mL BSA, 3.75 mM reduced L-glutathione, 15 U/mL lactate dehydrogenase, 0.5 mM phosphoenolpyruvate, 15 U/mL pyruvate kinase, compounds at different concentrations at final DMSO concentrations of 1%.
The enzymatic reaction is then started by addition of a mixture of NADH, acetyl Coenzyme A (both 200 μM f.c.) and ATP (500 uM f.c.). The decrease of the optical density (slope S) is then determined at 25° C. at a wavelength of 340 nm over 15 minutes in a spectrophotometric reader.
Each assay microtiter plate contains wells with vehicle instead of compound as controls for the non-inhibited enzyme (100% CTL; ‘HIGH’) and wells without acetyl-CoA as controls for non-specific NADH degradation (0% CTL; ‘LOW’).
The slope S is used for calculation of % CTL=(S(compound)−S(‘LOW’))/(S(‘HIGH’)−S(‘LOW’))*100. Compounds will give values between 100% CTL (no inhibition) and 0% CTL (complete inhibition).
For IC50 value determination, the sample slope in the presence of the test compound after subtraction of the low controls (S(compound)−S(‘LOW’)) are used. An IC50 value is derived from the compound slopes at different dosages after subtraction of the low controls (S(compound)−S(‘LOW’)) by non-linear regression curve fitting (equation y=(A+((B−A)/(1+((C/x)^D))))).
For orientation: IC50 means the point on the concentration scale where inhibition reaches its midpoint. Low readings indicate inhibition by little substance, high ones a need for much substance. The compound `CC(=O)NC(C)Cc1ccc(C#Cc2ccc(Oc3cncnc3)nc2)cc1` (stereo not shown) [Example 2.26] displayed an IC50 of 930 nM.
`CCCOc1ccc(C#Cc2ccc(CC(C)NC(C)=O)cc2)cn1` (stereo not shown) [Example 2.27]: inhibition was half-maximal at 280 nM (IC50).
In the case of `CCOc1cc(C#Cc2ccc(CC(C)NC(C)=O)cc2)ccn1` (stereo not shown) [Example 2.28], the IC50 was 270 nM.
Take `CCOc1ccc(C#Cc2ccc(CC(C)NC(C)=O)cc2)nn1` (stereo not shown) [Example 2.29]: it took 1600 nM to reach half-maximal inhibition (IC50).
As for `COc1ccc(C#Cc2ccc(CC(C)NC(C)=O)cc2)cc1` (stereo not shown) [Example 2.30], the figure is 330 nM; as for `CCOc1ccc(C#Cc2ccc(CC(C)NC(C)=O)cc2)cn1` (stereo not shown) [Example 2.31], 280 nM; as for `CCCOc1ccc(C#Cc2ccc(CC(C)NC(C)=O)cc2)c(OC)c1` (stereo not shown) [Example 2.32], 160 nM.
In the case of `CC(=O)NCC(C)(C)c1ccc(C#Cc2cnc(NC3CCC3)nc2)cc1` [Example 2.33], inhibition was half-maximal at 270 nM (IC50).
Compound `CC(=O)NCC(C)(C)c1ccc(C#Cc2cnc(OC3CCC3)nc2)cc1` [Example 2.34] had an IC50 of 180 nM.
Consider `CCCOc1ccc(C#Cc2ccc(C(C)(C)CNC(C)=O)cc2)cn1` [Example 2.35], for which the concentration for half-maximal inhibition (IC50) was determined as 130 nM.
Consider `CCCOc1ccc(C#Cc2ccc(C(C)(C)CNC(C)=O)cc2)cc1` [Example 2.36], for which the IC50 worked out at 140 nM.
As for `CC(=O)NCC(C)(C)c1ccc(C#Cc2ccc(OCC3CC3)cc2)cc1` [Example 2.37], half-maximal inhibition (IC50) was put at 100 nM.
Compound `CC(=O)NC(C)(C)c1ccc(C#Cc2ccnc(OC(C)C)c2)cc1` [Example 2.38] came in with an IC50 of 10100 nM.
As for `CC(=O)NC(C)(C)c1ccc(C#Cc2ccc(OC(C)C)nc2)cc1` [Example 2.39], the figure is 21600 nM; as for `CCCOc1ccc(C#Cc2ccc(C(C)(C)NC(C)=O)cc2)c(OC)c1` [Example 2.40], 11800 nM.
The figure for `CCCOc1ccc(C#Cc2ccc(C(C)(C)NC(C)=O)cc2)cc1` [Example 2.41] is 25000 nM; for `CC(=O)NC(C)(C)c1ccc(C#Cc2ccc(OC3CCC3)cc2)cc1` [Example 2.42] it is 24600 nM.
Compound `CC(=O)NC(C)c1ccc(C#Cc2ccc(OC3CCCC3)nc2)cc1` (stereo not shown) [Example 2.43] displayed an IC50 of 450 nM.
Turning to `CC(=O)NC(C)c1ccc(C#Cc2ccc(OC(C)(C)C)cc2)cc1` (stereo not shown) [Example 2.44], the IC50 was 420 nM.
For `CC(=O)NC(C)c1ccc(C#Cc2ccc3c(c2)CCO3)cc1` (stereo not shown) [Example 2.45], 250 nM corresponded to half-maximal inhibition (IC50).
In the case of `CCCc1ccc(C#Cc2ccc(C(C)NC(C)=O)cc2)cc1` (stereo not shown) [Example 2.46], the IC50 was 410 nM.
For `CC(=O)NC(C)c1ccc(C#Cc2ccc(OC(C)C)cc2)cc1` (stereo not shown) [Example 2.47], the concentration for half-maximal inhibition (IC50) worked out at 360 nM.
Compound `CC(=O)NC(C)c1ccc(C#Cc2ccc(OCC(C)C)cc2)cc1` (stereo not shown) [Example 2.48] came in with an IC50 of 260 nM.
Regarding `CCCOc1ccc(C#Cc2ccc(C(C)NC(C)=O)cc2)cc1` (stereo not shown) [Example 2.49], 250 nM corresponded to half-maximal inhibition (IC50).
The figure for `CC(=O)NC(C)c1ccc(C#Cc2ccc(OC(C)C)nc2)cc1` (stereo not shown) [Example 2.50] is 900 nM; for `CCCOc1ccc(C#Cc2ccc(C(C)NC(C)=O)cc2)c(OC)c1` (stereo not shown) [Example 2.51] it is 1300 nM; for `CC(=O)NC(C)c1ccc(C#Cc2ccc(OC3CCCC3)cc2)cc1` (stereo not shown) [Example 2.52] it is 190 nM.
Consider `CC(=O)NC(C)c1ccc(C#Cc2ccc(OC3CCC3)cc2)cc1` (stereo not shown) [Example 2.53], for which the IC50 turned out to be 120 nM.
Compound `CCCOc1ccc(C#Cc2ccc(C(C)NC(C)=O)cc2)cn1` (stereo not shown) [Example 2.54] had an IC50 of 1200 nM.
As to `CC(=O)NC(C)c1ccc(C#Cc2ccc(OC3CC3)cc2)cc1` (stereo not shown) [Example 2.55], the IC50 worked out at 70 nM.
`COc1ccc(C#Cc2ccc(CC(C)NC(=O)C3CC3)cc2)cc1` (stereo not shown) [Example 2.56] had an IC50 of 960 nM.
As for `CC(Cc1ccc(C#Cc2ccc(C(C)C)cc2)cc1)NC(=O)C1CC1` (stereo not shown) [Example 2.57], half-maximal inhibition (IC50) was put at 570 nM.
In the case of `COc1ncc(C#Cc2ccc(CC(C)NC(=O)C3CC3)cc2)c(OC)n1` (stereo not shown) [Example 2.58], the IC50 was 3700 nM.
In the case of `CC(Cc1ccc(C#Cc2ccc(OC(F)F)cc2)cc1)NC(=O)C1CC1` (stereo not shown) [Example 2.59], half-maximal inhibition (IC50) was put at 2100 nM.
As for `CCOc1cc(C#Cc2ccc(CC(C)NC(=O)C3CC3)cc2)ccn1` (stereo not shown) [Example 2.60], the figure is 690 nM.
The compound `CC(Cc1ccc(C#Cc2ccc(OC(C)(C)C)cc2)cc1)NC(=O)C1CC1` (stereo not shown) [Example 2.61] had an IC50 of 2000 nM.
Regarding `CC(Cc1ccc(C#Cc2ccc3c(c2)CCO3)cc1)NC(=O)C1CC1` (stereo not shown) [Example 2.62], 740 nM corresponded to half-maximal inhibition (IC50).
As for `CCCc1ccc(C#Cc2ccc(CC(C)NC(=O)C3CC3)cc2)cc1` (stereo not shown) [Example 2.63], inhibition was half-maximal at 460 nM (IC50).
The figure for `COc1ccc(C#Cc2ccc(CC(C)NC(=O)C3CC3)cc2)cn1` (stereo not shown) [Example 2.64] is 2800 nM; for `CC(Cc1ccc(C#Cc2ccc(OC(C)C)nc2)cc1)NC(=O)C1CC1` (stereo not shown) [Example 2.65] it is 480 nM.
As for `CC(Cc1ccc(C#Cc2ccc(OC3CCCC3)nc2)cc1)NC(=O)C1CC1` (stereo not shown) [Example 2.66], the figure is 230 nM.
Compound `CC(Cc1ccc(C#Cc2ccc(C3CC3)cn2)cc1)NC(=O)C1CC1` (stereo not shown) [Example 2.67] had an IC50 of 7200 nM.
As for `CCCOc1ccc(C#Cc2ccc(CC(C)NC(=O)C3CC3)cc2)c(OC)c1` (stereo not shown) [Example 2.68], the figure is 250 nM; as for `COc1cc(C#Cc2ccc(CC(C)NC(=O)C3CC3)cc2)ccn1` (stereo not shown) [Example 2.69], 2000 nM.
`CCCOc1ccc(C#Cc2ccc(CC(C)NC(=O)C3CC3)cc2)cn1` (stereo not shown) [Example 2.70] came in with an IC50 of 800 nM.
Turning to `COc1ccc(C#Cc2ccc(CC(C)NC(=O)C3CC3)cc2)cc1OC` (stereo not shown) [Example 2.71], half-maximal inhibition (IC50) was put at 3400 nM.
As to `CC(=O)NC(C)Cc1ccc(C#Cc2cnc3ccccc3c2)cc1` (stereo not shown) [Example 2.72], the IC50 was determined as 910 nM.
Consider `CC(=O)NC(C)Cc1ccc(C#Cc2ccc(N3CCOCC3)cc2)cc1` (stereo not shown) [Example 2.73], for which the IC50 was 640 nM.
On to `CC(=O)NC(C)Cc1ccc(C#Cc2ccc3ncccc3c2)cc1` (stereo not shown) [Example 2.74], for which the IC50 came to 1100 nM.
As for `CC(=O)NC(C)Cc1ccc(C#Cc2ccc(OC(C)(C)C)cc2)cc1` (stereo not shown) [Example 2.75], half-maximal inhibition (IC50) required 100 nM.
In turn, `CC(=O)NC(C)Cc1ccc(C#Cc2ccc3c(c2)CCC3=O)cc1` (stereo not shown) [Example 2.76] displayed an IC50 of 5800 nM.
The figure for `CC(=O)NC(C)Cc1ccc(C#Cc2ccc(Oc3ccccc3)nn2)cc1` (stereo not shown) [Example 2.77] is 1500 nM.
Compound `CC(=O)NC(C)Cc1ccc(C#Cc2cc(OCc3ccccc3)ncn2)cc1` (stereo not shown) [Example 2.78] came in with an IC50 of 750 nM.
`CC(=O)NC(C)Cc1ccc(C#Cc2cnn(-c3ccccc3)c2)cc1` (stereo not shown) [Example 2.79]: the IC50 is 450 nM.
The compound `CC(=O)NC(C)Cc1ccc(C#Cc2ccc(C3CC3)cn2)cc1` (stereo not shown) [Example 2.80] displayed an IC50 of 740 nM.
Turning to `CC(=O)NC(C)Cc1ccc(C#Cc2cc(C)c3c(c2)oc(=O)n3C)cc1` (stereo not shown) [Example 2.81], the IC50 came out at 4000 nM.
The figure for `CC(=O)NC(C)Cc1ccc(C#Cc2ccn(CC(C)C)c(=O)c2)cc1` (stereo not shown) [Example 2.82] is 1600 nM.
Consider `COCCn1ccc(C#Cc2ccc(CC(C)NC(C)=O)cc2)cc1=O` (stereo not shown) [Example 2.83], for which 17700 nM corresponded to half-maximal inhibition (IC50).
`CC(=O)NC(C)Cc1ccc(C#Cc2ccn(C(C)C)c(=O)c2)cc1` (stereo not shown) [Example 2.84]: 5800 nM corresponded to half-maximal inhibition (IC50).
The figure for `CCCCn1ccc(C#Cc2ccc(CC(C)NC(C)=O)cc2)cc1=O` (stereo not shown) [Example 2.85] is 1100 nM.
`CC(=O)NC(C)Cc1ccc(C#Cc2ccc(OC(C)C)nn2)cc1` (stereo not shown) [Example 2.86]: the IC50 is 930 nM.
In turn, `CCn1ccc(C#Cc2ccc(CC(C)NC(C)=O)cc2)cc1=O` (stereo not shown) [Example 2.87] displayed an IC50 of 12900 nM.
`CCCCOc1ccc(C#Cc2ccc(CC(C)NC(C)=O)cc2)nn1` (stereo not shown) [Example 2.88]: half-maximal inhibition (IC50) was put at 880 nM.
The figure for `COCCOc1ccc(C#Cc2ccc(CC(C)NC(C)=O)cc2)nn1` (stereo not shown) [Example 2.89] is 16400 nM.
Consider `CCCOc1ccc(C#Cc2ccc(CC(C)NC(C)=O)cc2)c(C(N)=O)c1` (stereo not shown) [Example 2.90], for which 5200 nM corresponded to half-maximal inhibition (IC50).
`CC(=O)NC(C)Cc1ccc(C#Cc2ccnc(Oc3cncnc3)c2)cc1` (stereo not shown) [Example 2.91] displayed a half-maximal inhibitory concentration (IC50) of 400 nM.
The figure for `CCCOc1ccc(C#Cc2ccc(CC(C)NC(C)=O)cc2)c(C#N)c1` (stereo not shown) [Example 2.92] is 170 nM; for `CCCOc1ccc(C#Cc2ccc(CC(C)NC(C)=O)cc2)c(Cl)c1` (stereo not shown) [Example 2.93] it is 80 nM; for `COc1cc(C#Cc2ccc(CC(C)NC(C)=O)cc2)ccn1` (stereo not shown) [Example 2.94] it is 260 nM.
As for `CCCOc1ccc(C#Cc2ccc(CC(C)NC(C)=O)cc2)c(C)c1` (stereo not shown) [Example 2.95], the figure is 110 nM.
